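Exposure lasted 48 hours, with cells grown in 96-well plates and compounds tested at five concentrations. At the GI50, growth is halved.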 Calls of active or inactive are those of the source. No stated cut-off is given here; in the data, active = GI50 up to about 1.1 µM and inactive = higher.
Experiments:
Assay in all cases: growth of human tumour cells (NCI), 48 h
SK-MEL-2 = test system: SK-MEL-2
UO-31 = test system: UO-31
HCT-116 = test system: HCT-116
SK-MEL-28 = test system: SK-MEL-28
HOP-92 = test system: HOP-92
K562 = test system: K562
OVCAR-3 = test system: OVCAR-3
HT-29 = test system: HT-29
786-0 = test system: 786-0
Malme-3M = test system: Malme-3M
MDA-N = test system: MDA-N
UACC-62 = test system: UACC-62
Hs-578T = test system: Hs-578T
EKVX = test system: EKVX
ACHN = test system: ACHN
A549 = test system: A549
DU-145 = test system: DU-145
MOLT-4 = test system: MOLT-4
NCI/ADR-RES = test system: NCI/ADR-RES

Row | SMILES | GI50 (SK-MEL-2) | GI50 (UO-31) | GI50 (HCT-116) | GI50 (SK-MEL-28) | GI50 (HOP-92) | GI50 (K562) | GI50 (OVCAR-3) | GI50 (HT-29) | GI50 (786-0) | GI50 (Malme-3M) | GI50 (MDA-N) | GI50 (UACC-62) | GI50 (Hs-578T) | GI50 (EKVX) | GI50 (ACHN) | GI50 (A549) | GI50 (DU-145) | GI50 (MOLT-4) | GI50 (NCI/ADR-RES)
1 | CCN(CC)CCC1CCCCN1CC(=O)N1c2ccccc2NC(=O)CC1C (stereo not drawn) | > 100 µM (inactive) | > 100 µM (inactive) | > 100 µM (inactive) | > 100 µM (inactive) | > 100 µM (inactive) | > 100 µM (inactive) | > 100 µM (inactive) | > 100 µM (inactive) | > 100 µM (inactive) | > 100 µM (inactive) | > 100 µM (inactive) | > 100 µM (inactive) | > 100 µM (inactive) | > 100 µM (inactive) | > 100 µM (inactive) | > 100 µM (inactive) | > 100 µM (inactive) | > 100 µM (inactive) | –
2 | Nc1nc(N)c2nc(CN(C=O)c3ccc(C(=O)O)cc3)cnc2n1 | > 100 µM (inactive) | > 22.3 µM (inactive) | 3.84 µM (inactive) | > 100 µM (inactive) | > 100 µM (inactive) | 1.6 µM (inactive) | > 100 µM (inactive) | > 100 µM (inactive) | 3.05 µM (inactive) | 8.18 µM (inactive) | 8.71 µM (inactive) | 7.11 µM (inactive) | > 100 µM (inactive) | > 26.4 µM (inactive) | 3.94 µM (inactive) | 6.14 µM (inactive) | 7.38 µM (inactive) | 4.81 µM (inactive) | –
3 | [N-]=[N+]=NC1C2CC3C4CC5CC3[C@H](C2)C(C5)C41 (stereo partly drawn) | > 100 µM (inactive) | > 100 µM (inactive) | > 100 µM (inactive) | > 100 µM (inactive) | > 100 µM (inactive) | > 100 µM (inactive) | > 100 µM (inactive) | > 100 µM (inactive) | > 100 µM (inactive) | > 100 µM (inactive) | – | > 100 µM (inactive) | – | > 100 µM (inactive) | > 100 µM (inactive) | > 100 µM (inactive) | – | > 100 µM (inactive) | –
4 | CC1(C)[C@@H]2C[C@H]1[C@@H](Cc1cccc(C[C@H]3c4cc(-c5ccccn5)ncc4[C@H]4C[C@@H]3C4(C)C)c1)c1cc(-c3ccccn3)ncc12 | > 100 µM (inactive) | 1.22 µM (inactive) | 1.09 µM (active) | 4.92 µM (inactive) | 9.04 µM (inactive) | 1.19 µM (inactive) | > 30.5 µM (inactive) | 3.17 µM (inactive) | 2.1 µM (inactive) | – | 6.22 µM (inactive) | 2.92 µM (inactive) | – | 4.62 µM (inactive) | 1.37 µM (inactive) | 2.76 µM (inactive) | 1.09 µM (active) | 1.41 µM (inactive) | 3.78 µM (inactive)
5 | O=C(NCc1cccc2ccccc12)N/N=C\c1ccc(Cl)cc1 | > 100 µM (inactive) | > 100 µM (inactive) | > 100 µM (inactive) | > 100 µM (inactive) | 74.8 µM (inactive) | > 100 µM (inactive) | > 100 µM (inactive) | > 100 µM (inactive) | > 100 µM (inactive) | > 100 µM (inactive) | 9.82 µM (inactive) | > 100 µM (inactive) | – | 36.1 µM (inactive) | > 100 µM (inactive) | – | > 100 µM (inactive) | > 100 µM (inactive) | > 100 µM (inactive)
6 | COC(=O)C1C(C(=O)OC)C2(OC(c3ccc(Cl)cc3)=CC2=O)C12OC(c1ccc(Cl)cc1)=CC2=O (stereo not drawn) | 24 µM (inactive) | 16.6 µM (inactive) | 14.9 µM (inactive) | 36.8 µM (inactive) | 18.6 µM (inactive) | 19.3 µM (inactive) | 19.2 µM (inactive) | 16.7 µM (inactive) | 16.6 µM (inactive) | 17.3 µM (inactive) | 18.3 µM (inactive) | 14.6 µM (inactive) | 30.5 µM (inactive) | 22.3 µM (inactive) | 19.9 µM (inactive) | 34.1 µM (inactive) | 29.9 µM (inactive) | 4.45 µM (inactive) | –
7 | O=S(=O)(c1cc(Cl)ccc1Cl)N1CCN(c2ccc(Cl)c(Cl)c2)CC1 | – | 35.8 µM (inactive) | 34.6 µM (inactive) | > 100 µM (inactive) | 18 µM (inactive) | 91.6 µM (inactive) | 14.6 µM (inactive) | 88.1 µM (inactive) | 17.9 µM (inactive) | 37.7 µM (inactive) | – | – | 29.9 µM (inactive) | 32.2 µM (inactive) | 37 µM (inactive) | 35.7 µM (inactive) | > 100 µM (inactive) | > 100 µM (inactive) | –
8 | Cc1c2cccc-2c2cc(O)c3ccccc3c2n1-c1ccc(N(C)C)cc1 | 16.7 µM (inactive) | 11.5 µM (inactive) | 15.7 µM (inactive) | 17.2 µM (inactive) | 2.51 µM (inactive) | 6.81 µM (inactive) | 6.46 µM (inactive) | 16.7 µM (inactive) | 12.2 µM (inactive) | 15.6 µM (inactive) | 17 µM (inactive) | 16 µM (inactive) | 15 µM (inactive) | 2.83 µM (inactive) | 12.4 µM (inactive) | 14.6 µM (inactive) | – | – | 14.6 µM (inactive)
9 | CC(=O)CC(=O)Nn1c(-c2cccs2)nc2ccc(I)cc2c1=O | > 56.6 µM (inactive) | > 46.9 µM (inactive) | > 60.1 µM (inactive) | > 100 µM (inactive) | > 50.1 µM (inactive) | > 65.9 µM (inactive) | > 40.7 µM (inactive) | > 100 µM (inactive) | > 65.9 µM (inactive) | > 52.6 µM (inactive) | > 100 µM (inactive) | > 50.6 µM (inactive) | – | > 37.7 µM (inactive) | > 57 µM (inactive) | > 64.3 µM (inactive) | > 38.1 µM (inactive) | > 70.1 µM (inactive) | > 46.5 µM (inactive)
10 | CO[C@@H]1[C@H](O)CC[C@]2(CO2)[C@H]1[C@@]1(C)O[C@@H]1CC=C(C)C | > 200 µM (inactive) | 83.2 µM (inactive) | 84.3 µM (inactive) | > 200 µM (inactive) | > 200 µM (inactive) | > 200 µM (inactive) | 189 µM (inactive) | > 200 µM (inactive) | > 200 µM (inactive) | 81.8 µM (inactive) | – | 54.3 µM (inactive) | > 200 µM (inactive) | 165 µM (inactive) | 155 µM (inactive) | – | 140 µM (inactive) | 80.5 µM (inactive) | > 200 µM (inactive)
11 | Cc1[nH]c2ccccc2c1-c1cc(-c2cc(-c3c(C)[nH]c4ccccc34)nc(N)n2)nc(N)n1 | > 100 µM (inactive) | 14.9 µM (inactive) | > 100 µM (inactive) | > 100 µM (inactive) | > 100 µM (inactive) | > 100 µM (inactive) | > 100 µM (inactive) | > 100 µM (inactive) | > 100 µM (inactive) | > 100 µM (inactive) | > 100 µM (inactive) | > 100 µM (inactive) | > 100 µM (inactive) | > 100 µM (inactive) | > 100 µM (inactive) | > 100 µM (inactive) | – | > 100 µM (inactive) | > 100 µM (inactive)
12 | CN(C)/C=N/C1CCC(C(C)(C)C)CC1 (stereo not drawn) | 18.6 µM (inactive) | 16.3 µM (inactive) | 16 µM (inactive) | 15.9 µM (inactive) | 15.5 µM (inactive) | 15 µM (inactive) | 14.5 µM (inactive) | 8.69 µM (inactive) | 17.6 µM (inactive) | 18.4 µM (inactive) | – | 19 µM (inactive) | 20.7 µM (inactive) | 22.4 µM (inactive) | 21.2 µM (inactive) | 18.7 µM (inactive) | 24.9 µM (inactive) | 12.9 µM (inactive) | 17.7 µM (inactive)
13 | Cc1cc(N(CCC#N)CCC#N)ccc1/N=N/c1ccc(C(=O)O)cc1 | > 100 µM (inactive) | 77.6 µM (inactive) | – | > 100 µM (inactive) | – | – | > 100 µM (inactive) | > 100 µM (inactive) | > 100 µM (inactive) | > 100 µM (inactive) | – | > 100 µM (inactive) | – | > 100 µM (inactive) | > 100 µM (inactive) | > 100 µM (inactive) | – | > 100 µM (inactive) | –
14 | C#CCNC(CCCNC(=N)N)C(=O)O (stereo not drawn) | > 100 µM (inactive) | > 100 µM (inactive) | > 100 µM (inactive) | > 100 µM (inactive) | > 100 µM (inactive) | > 100 µM (inactive) | > 100 µM (inactive) | > 100 µM (inactive) | > 100 µM (inactive) | > 100 µM (inactive) | – | > 100 µM (inactive) | > 100 µM (inactive) | > 100 µM (inactive) | > 100 µM (inactive) | > 100 µM (inactive) | > 100 µM (inactive) | > 100 µM (inactive) | > 100 µM (inactive)
15 | CC[C@]1(Cc2ccc(OC)c(OC)c2)C=[N+]([O-])O[C@H](OC2CCCC2(c2ccccc2)c2ccccc2)[C@@H]1OC(=O)C(C)(C)C (stereo partly drawn) | 2.66 µM (inactive) | 1.77 µM (inactive) | 1.98 µM (inactive) | 2.09 µM (inactive) | 4.14 µM (inactive) | 3.61 µM (inactive) | 1.55 µM (inactive) | 1.86 µM (inactive) | 2.05 µM (inactive) | – | – | 3.66 µM (inactive) | 2.72 µM (inactive) | 4.61 µM (inactive) | 2.33 µM (inactive) | 3.11 µM (inactive) | 2 µM (inactive) | 2.76 µM (inactive) | 2.29 µM (inactive)
16 | C1CSCCSCCS1 | – | > 100 µM (inactive) | > 100 µM (inactive) | > 100 µM (inactive) | > 100 µM (inactive) | > 100 µM (inactive) | > 100 µM (inactive) | > 100 µM (inactive) | > 100 µM (inactive) | – | > 100 µM (inactive) | > 100 µM (inactive) | – | > 100 µM (inactive) | – | > 100 µM (inactive) | > 100 µM (inactive) | > 100 µM (inactive) | > 100 µM (inactive)
